Earlier results in patent US20150283242A1, “EFFECTIVE PHARMACEUTICAL CARRIER FOR POORLY BIOAVAILABLE DRUGS” (Hovid Berhad, priority 2007, published 2015).

SMILES | log P (partition coefficient)
Cc1ccc(C)c(OCCCC(C)(C)C(=O)O)c1 [gemfibrozil] | 4.77
COc1ccc2c(c1)c(CC(=O)O)c(C)n2C(=O)c1ccc(Cl)cc1 [indomethacin] | 4.27
COC1=C(OC)C(=O)C(C/C=C(\C)CC/C=C(\C)CC/C=C(\C)CC/C=C(\C)CC/C=C(\C)CC/C=C(\C)CC/C=C(\C)CC/C=C(\C)CC/C=C(\C)CCC=C(C)C)=C(C)C1=O [ubiquonone] | more than 10
CC[C@H](C)C(=O)O[C@H]1C[C@H](O)C=C2C=C[C@H](C)[C@H](CC[C@@H](O)C[C@@H](O)CC(=O)O)[C@H]21 [pravastatin] | 2.42
